In PubChem BioAssay (NCI):
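Where inhibition never reached the appropriate level, the endpoint shown equals the highest concentration tested. Otherwise, values were interpolated linearly from a five-concentration, 48-hour dose response in 96-well plates. TGI is the concentration that stops growth completely.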

Key:
Experiment in all cases: inhibition of tumour cell growth, NCI panel, 48 h
[1] = system: BT-549 breast
[2] = system: SK-MEL-5 melanoma
[3] = system: MDA-N
[4] = system: CAKI-1 renal
[5] = system: MALME-3M melanoma
[6] = system: SN12C renal
[7] = system: TK-10 renal
[8] = system: SK-MEL-2 melanoma
[9] = system: T-47D breast
[10] = system: HT29 colon
[11] = system: LOX IMVI melanoma
[12] = system: OVCAR-5 ovarian
[13] = system: MCF7 breast
[14] = system: OVCAR-3 ovarian
[15] = system: PC-3 prostate
[16] = system: HCT-116 colon

CC(=O)N1N=C(N)CC1=O
TGI [1]: > 100 µM
TGI [2]: > 100 µM
TGI [3]: > 100 µM
TGI [4]: > 100 µM
TGI [5]: > 100 µM
TGI [6]: > 100 µM
TGI [7]: > 100 µM
TGI [8]: > 100 µM
TGI [9]: > 100 µM
TGI [10]: > 100 µM
TGI [11]: > 100 µM
TGI [12]: > 100 µM
TGI [13]: > 100 µM
TGI [14]: > 100 µM
TGI [15]: > 100 µM
TGI [16]: > 100 µM

CN(C)CCNC(=O)c1ccc(NCCCN(C)CCCNc2ccc(C(=O)NCCN(C)C)c3[nH]c4ccc([N+](=O)[O-])cc4c(=O)c23)c2c(=O)c3cc([N+](=O)[O-])ccc3[nH]c12
TGI [1]: 2.64 µM
TGI [2]: 1.14 µM
TGI [3]: 0.997 µM
TGI [4]: 3.75 µM
TGI [5]: 1.37 µM
TGI [6]: 0.668 µM
TGI [7]: 1.38 µM
TGI [8]: 0.382 µM
TGI [9]: 2.55 µM
TGI [10]: 1.02 µM
TGI [11]: 0.206 µM
TGI [12]: 1.71 µM
TGI [13]: 0.655 µM
TGI [14]: 1.94 µM
TGI [15]: 0.535 µM
TGI [16]: 0.644 µM

OCCN=C1c2ccccc2C2C(c3ccccc31)C1c3ccccc3C(=NCCO)c3ccccc3C21 (stereo not given)
TGI [1]: 52.3 µM
TGI [2]: 35.2 µM
TGI [3]: 31.3 µM
TGI [4]: 39.5 µM
TGI [5]: 75.7 µM
TGI [6]: 55.8 µM
TGI [7]: 79.5 µM
TGI [8]: 30.5 µM
TGI [9]: 97 µM
TGI [10]: 34.8 µM
TGI [11]: 52.6 µM
TGI [12]: 60.7 µM
TGI [13]: 60 µM
TGI [14]: 40.3 µM
TGI [15]: 53.8 µM
TGI [16]: 30.3 µM

Cc1ccc(/C=N/Nc2nncc3ccccc23)s1
TGI [1]: > 100 µM
TGI [2]: > 100 µM
TGI [3]: > 100 µM
TGI [4]: > 100 µM
TGI [5]: > 100 µM
TGI [6]: > 100 µM
TGI [7]: > 100 µM
TGI [8]: > 100 µM
TGI [9]: > 100 µM
TGI [10]: > 100 µM
TGI [11]: > 100 µM
TGI [12]: > 100 µM
TGI [13]: > 100 µM
TGI [14]: > 100 µM
TGI [15]: > 100 µM
TGI [16]: > 100 µM

Nn1c(SCC(=O)NCc2ccccc2)nc2ccccc2c1=O
TGI [1]: > 100 µM
TGI [2]: > 100 µM
TGI [3]: > 100 µM
TGI [4]: > 100 µM
TGI [5]: > 100 µM
TGI [6]: > 100 µM
TGI [7]: > 100 µM
TGI [8]: > 100 µM
TGI [9]: > 100 µM
TGI [10]: > 100 µM
TGI [11]: > 100 µM
TGI [12]: > 100 µM
TGI [13]: > 100 µM
TGI [14]: > 100 µM
TGI [15]: > 100 µM
TGI [16]: 93.1 µM

O=c1[nH]c2ccc(CC(=S)N3CCN(c4ccccc4)CC3)cc2o1
TGI [1]: > 100 µM
TGI [2]: > 100 µM
TGI [3]: > 76.7 µM
TGI [4]: > 100 µM
TGI [5]: > 100 µM
TGI [6]: > 100 µM
TGI [7]: > 100 µM
TGI [8]: > 100 µM
TGI [9]: > 100 µM
TGI [10]: > 100 µM
TGI [11]: > 100 µM
TGI [12]: > 100 µM
TGI [13]: > 100 µM
TGI [14]: > 100 µM
TGI [15]: > 100 µM
TGI [16]: > 100 µM

CC(=O)c1c(-c2ccccc2)c(-c2ccc(OCCN(C)C)cc2)n2ccccc12
TGI [1]: 30.3 µM
TGI [2]: 24.1 µM
TGI [3]: 29.2 µM
TGI [4]: 37.1 µM
TGI [5]: 24.4 µM
TGI [6]: 29.4 µM
TGI [7]: 32.1 µM
TGI [8]: 33.3 µM
TGI [9]: 37.8 µM
TGI [10]: 13.6 µM
TGI [11]: 29.1 µM
TGI [12]: > 100 µM
TGI [13]: 32.3 µM
TGI [14]: 32.8 µM
TGI [15]: 35.5 µM
TGI [16]: 26 µM

COc1ccccc1N=N/C(=N/NC(=O)c1ccc(C)cc1)c1ccc(N(CCC#N)CCC#N)cc1OC
TGI [1]: 97.4 µM
TGI [2]: > 100 µM
TGI [3]: 53.5 µM
TGI [4]: > 100 µM
TGI [5]: 81.9 µM
TGI [6]: 72.4 µM
TGI [7]: > 100 µM
TGI [8]: 39.5 µM
TGI [9]: 96 µM
TGI [10]: 85.4 µM
TGI [11]: > 100 µM
TGI [12]: > 100 µM
TGI [13]: 63.1 µM
TGI [14]: > 100 µM
TGI [15]: 71.2 µM
TGI [16]: 59.9 µM

COc1cc2c3c(n(Cc4ccccc4)c(=O)c2cc1OC)-c1ccccc1C3=O
TGI [1]: > 100 µM
TGI [2]: > 100 µM
TGI [3]: > 100 µM
TGI [4]: > 100 µM
TGI [5]: > 100 µM
TGI [6]: > 100 µM
TGI [7]: > 100 µM
TGI [8]: > 100 µM
TGI [9]: > 100 µM
TGI [10]: > 100 µM
TGI [11]: > 100 µM
TGI [12]: > 100 µM
TGI [13]: > 100 µM
TGI [14]: > 100 µM
TGI [15]: > 100 µM
TGI [16]: > 100 µM

COC1(OC)C2(Cl)C(Cl)=C(Cl)C1(Cl)C1COCC12 (stereo not given)
TGI [1]: > 100 µM
TGI [2]: > 100 µM
TGI [3]: > 100 µM
TGI [4]: > 100 µM
TGI [5]: > 100 µM
TGI [6]: > 100 µM
TGI [7]: > 72.3 µM
TGI [8]: > 100 µM
TGI [9]: > 100 µM
TGI [10]: > 100 µM
TGI [11]: > 100 µM
TGI [12]: > 100 µM
TGI [13]: > 100 µM
TGI [14]: > 100 µM
TGI [15]: > 100 µM
TGI [16]: > 100 µM
